Measured values taken from patent US5739145A (priority 1993, dated 1998).
Counter-ions that a name gives are not always drawn.

How the values were obtained:
[1] = tested on: rats (capsaicin-induced cough); assay: animal or person; format: in vivo; settings: Rattus norvegicus, ip, 0.5 h
mouse vas deferens = assay: Opioid activity test using extracted mouse vas deferens sample (inhibition of electrically stimulated contraction); format: cell-based, mouse (male ddy)
Experimental: (§1) Male ddy mice were provided for experimentation. Vas deferens extracted from the mice were suspended in a Magnus tube filled with a 37° C.-heated Krebes-Henseleit solution ([…], 4.7 mM KCl, 2.5 mM CaCl2, 1.1 mM KH2 PO4, 25 mM NaHCO3, 11 mM glucose) and aerated with 5% carbon dioxide and 95% oxygen. A 0.1 Hz, 5.0 mS electrical stimulus was applied via an annular platinum electrode. The tissue contraction was recorded on a polygraph using an isometric transducer.
(§2) Then, the sample was adequately washed with a nutrient solution, and when the contraction reaction stabilized, the μ-antagonist naloxone, the δ-antagonist NTI or the κ-antagonist norBNI was added thereto, and after about 20 minutes the test compound was once again added cumulatively. The Ke value was calculated from the difference in potency between the two, according to the following equation. Ke=[concentration of added antagonist]/(IC50 ratio -1) IC50 ratio=IC50 value in presence of antagonist/IC50 value in absence of antagonist

[2] = tested on: guinea pigs (cough by mechanical airway stimulation); assay: Antitussive effect by guinea pig airway stimulation method; format: in vivo, guinea pig (male Hartley); settings: for ED50: Cavia porcellus, sc, guinea pig airway stimulation; for Number of animals exhibiting coughing/number of animals tested: guinea pig, s.c.
Experimental: A group of five male Hartley guinea pigs (5 weeks old) with a body weight of 330-380 g were used. They were fixed in the supine position under light anesthesia by intraperitoneal administration of 15 mg/kg of pentobarbital sodium, and the necks were cut open to expose the airways. A small hole was opened in each exposed airway, from which stimulating hair was inserted about 3 cm into the airway at a 30° angle to stimulate the wall of the airway, and the occurrence or lack of coughing was noted. […] The test compounds were subcutaneously administered, and the stimulation was performed twice at each point 15, 30, 60 and 120 minutes after administration, pronouncing effective those cases in which no coughing occurred either time.

δ opioid receptor = molecular target: T1, δ opioid receptor (Mus musculus, UniProt P32300); assay: Antagonism by the δ-antagonist NTI in extracted mouse vas deferens; format: cell-based; settings: Ke=[antagonist]/(IC50 ratio -1)
T1 construct: from tissue; host or cells: vas deferens of male ddy mice
T1 sequence (P32300 whole entry): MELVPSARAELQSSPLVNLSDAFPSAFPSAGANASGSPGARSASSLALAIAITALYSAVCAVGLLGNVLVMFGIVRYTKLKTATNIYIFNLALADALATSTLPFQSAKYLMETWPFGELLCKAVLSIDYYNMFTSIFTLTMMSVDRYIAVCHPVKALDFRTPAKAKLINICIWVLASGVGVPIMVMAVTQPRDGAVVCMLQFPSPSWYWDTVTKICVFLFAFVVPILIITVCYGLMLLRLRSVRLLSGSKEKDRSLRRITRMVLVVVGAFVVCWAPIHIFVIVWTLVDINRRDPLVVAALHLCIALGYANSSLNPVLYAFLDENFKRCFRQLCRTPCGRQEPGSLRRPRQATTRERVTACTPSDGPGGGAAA
Experimental: as §1, §2

κ-receptors = molecular target: T2, κ-receptors (Mus musculus, UniProt P33534); assay: Antagonism by the κ-antagonist norBNI in extracted mouse vas deferens; format: cell-based; settings: Ke=[antagonist]/(IC50 ratio -1)
T2 construct: from tissue; host or cells: vas deferens of male ddy mice
T2 sequence (P33534 whole entry): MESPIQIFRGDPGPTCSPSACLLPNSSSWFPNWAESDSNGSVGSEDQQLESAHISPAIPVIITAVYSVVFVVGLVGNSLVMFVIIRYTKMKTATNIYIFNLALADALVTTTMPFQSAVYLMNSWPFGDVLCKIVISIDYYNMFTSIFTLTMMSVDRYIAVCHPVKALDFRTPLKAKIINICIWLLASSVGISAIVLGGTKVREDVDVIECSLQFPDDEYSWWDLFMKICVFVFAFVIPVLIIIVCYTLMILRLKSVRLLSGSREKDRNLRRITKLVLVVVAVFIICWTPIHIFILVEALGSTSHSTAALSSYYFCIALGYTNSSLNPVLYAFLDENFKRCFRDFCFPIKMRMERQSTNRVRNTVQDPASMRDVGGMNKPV
Experimental: as §1, §2

μ-receptors = molecular target: T3, μ-receptors (Mus musculus, UniProt P42866); assay: Antagonism by the μ-antagonist naloxone in extracted mouse vas deferens; format: cell-based; settings: Ke=[antagonist]/(IC50 ratio -1)
T3 construct: from tissue; host or cells: vas deferens of male ddy mice
T3 sequence (P42866 whole entry): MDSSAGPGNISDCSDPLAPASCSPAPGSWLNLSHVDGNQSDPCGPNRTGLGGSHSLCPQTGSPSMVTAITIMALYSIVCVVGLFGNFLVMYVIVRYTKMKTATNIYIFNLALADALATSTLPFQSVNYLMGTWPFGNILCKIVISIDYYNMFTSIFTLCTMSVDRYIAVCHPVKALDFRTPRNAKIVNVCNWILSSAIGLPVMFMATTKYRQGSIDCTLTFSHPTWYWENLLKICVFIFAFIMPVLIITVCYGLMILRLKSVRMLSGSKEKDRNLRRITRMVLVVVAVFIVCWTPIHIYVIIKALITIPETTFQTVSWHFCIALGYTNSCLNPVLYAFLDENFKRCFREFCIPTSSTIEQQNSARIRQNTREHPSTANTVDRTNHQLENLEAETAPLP
Experimental: as §1, §2

CN(CCc1ccc(Cl)c(Cl)c1)[C@@H]1CC[C@@]2(O)[C@H]3Cc4ccc(O)c5c4[C@@]2(CCN3CC2CC2)[C@H]1O5 [Compound 7, 17-cyclopropylmethyl-4,5α-epoxy-3,14β-dihydroxy-6β-[N-methyl-N-2-(3,4-dichlorophenyl)ethylamino]morphinan.1.9 HCl]
ED50 [1]: 437 µg/kg

CN(C(=O)/C=C/c1cccc(C(F)(F)F)c1)[C@@H]1CC[C@@]2(O)[C@H]3Cc4ccc(O)c5c4[C@@]2(CCN3CC2CC2)[C@H]1O5 [Compound 4, 17-cyclopropylmethyl-4,5α-epoxy-3,14β-dihydroxy-6β-(N-methyl-3-trifluoromethylcinnamamido)morphinan.tartrate]
IC50 (mouse vas deferens): 0.468 nM | ED50 [1]: 107 µg/kg | ED50 [2]: 2.6 µg/kg | Number of animals exhibiting coughing/number of animals tested ([2]; dosage 1 μg/kg): 1/5 | Number of animals exhibiting coughing/number of animals tested ([2]; dosage 3 μg/kg): 3/5 | Number of animals exhibiting coughing/number of animals tested ([2]; dosage 30 μg/kg): 5/5 | Ke NTI (δ opioid receptor): 291 nM | Ke norBNI (κ-receptors): 3.20 nM

COc1ccc2c3c1O[C@H]1[C@H](N(C)C(=O)C#Cc4cccc(C)c4)CC[C@@]4(O)[C@@H](C2)N(CC2CC2)CC[C@]314 [Compound 13, 17-cyclopropylmethyl-4,5α-epoxy-3-methoxy-14β-hydroxy-6β-[N-methyl-3-(3-methylphenyl)propiolamido]morphinan.HCl]
ED50 [1]: 12.1 µg/kg

Cc1cccc(C#CC(=O)N(C)[C@@H]2CC[C@@]3(O)[C@H]4Cc5ccc(O)c6c5[C@@]3(CCN4CC3CC3)[C@H]2O6)c1 [Compound 11, 17-cyclopropylmethyl-4,5α-epoxy-3,14β-dihydroxy-6β-[N-methyl-3-(3-methylphenyl)propiolamido]morphinan.HCl]
ED50 [1]: 13.5 µg/kg

Cc1cccc(/C=C/C(=O)N(C)[C@@H]2CC[C@@]3(O)[C@H]4Cc5ccc(O)c6c5[C@@]3(CCN4CC3CC3)[C@H]2O6)c1 [Compound 6, 17-cyclopropylmethyl-4,5α-epoxy-3,14β-dihydroxy-6β-(N-methyl-3-methylcinnamamido)morphinan.HCl]
Ke Naloxone (μ-receptors): 1780 nM | IC50 (mouse vas deferens): 0.32 nM | ED50 [2]: 12.5 µg/kg | Number of animals exhibiting coughing/number of animals tested ([2]; dosage 1 μg/kg): 1/5 | Number of animals exhibiting coughing/number of animals tested ([2]; dosage 3 μg/kg): 1/5 | Number of animals exhibiting coughing/number of animals tested ([2]; dosage 30 μg/kg): 4/5 | Ke NTI (δ opioid receptor): 64.5 nM | Ke norBNI (κ-receptors): 1.95 nM

O=C(CCc1ccccc1)O[C@H]1CC[C@@]2(O)[C@H]3Cc4ccc(O)c5c4[C@@]2(CCN3CC2CC2)[C@H]1O5 [Compound 9, 17-cyclopropylmethyl-4,5α-epoxy-3,14β-dihydroxy-6α-(3-phenylpropionyloxy)morphinan.tartrate]
ED50 [1]: 3300 µg/kg

CN(C(=O)OCc1ccccc1)[C@@H]1CC[C@@]2(O)[C@H]3Cc4ccc(O)c5c4[C@@]2(CCN3CC2CC2)[C@H]1O5 [Compound 8, 17-cyclopropylmethyl-4,5α-epoxy-3,14β-dihydroxy-6β-(N-methyl-benzyloxycarbamido)morphinan.HCl]
IC50 (mouse vas deferens): 0.42 nM | ED50 [1]: 1.79 µg/kg | Ke NTI (δ opioid receptor): 532 nM | Ke norBNI (κ-receptors): 1.00 nM

CN(C(=O)/C=C/c1ccoc1)[C@@H]1CC[C@@]2(O)[C@H]3Cc4ccc(O)c5c4[C@@]2(CCN3CC2CC2)[C@H]1O5 [Compound 5, 17-cyclopropylmethyl-4,5α-epoxy-3,14β-dihydroxy-6β-[N-methyl-trans-3-(3-furyl)acrylamido] morphinan.HCl]
IC50 (mouse vas deferens): 0.42 nM | ED50 [1]: 4.3 µg/kg | ED50 [2]: 3.7 µg/kg | Number of animals exhibiting coughing/number of animals tested ([2]; dosage 1 μg/kg): 2/5 | Number of animals exhibiting coughing/number of animals tested ([2]; dosage 3 μg/kg): 3/5 | Number of animals exhibiting coughing/number of animals tested ([2]; dosage 30 μg/kg): 5/5 | Ke norBNI (κ-receptors): 0.164 nM

CN(C(=O)/C=C/c1cccc(OC(F)(F)F)c1)[C@@H]1CC[C@@]2(O)[C@H]3Cc4ccc(O)c5c4[C@@]2(CCN3CC2CC2)[C@H]1O5 [Compound 10, 17-cyclopropylmethyl-4,5α-epoxy-3,14β-dihydroxy-6β-(N-methyl-3-trifluoromethoxycinnamamido)morphinan.tartrate]
Ke Naloxone (μ-receptors): 10.8 nM | ED50 [1]: 2.1 µg/kg | Ke NTI (δ opioid receptor): 17.6 nM | Ke norBNI (κ-receptors): 0.17 nM

COc1ccc2c3c1O[C@H]1[C@H](N(C)C(=O)/C=C/c4ccoc4)CC[C@@]4(O)[C@@H](C2)N(CC2CC2)CC[C@]314 [Compound 12, 17-cyclopropylmethyl-4,5α-epoxy-3-methoxy-14β-hydroxy-6β-[N-methyl-trans-3-(3-furyl)acrylamido]morphinan.HCl]
ED50 [1]: 0.12 µg/kg
